Reference: ChEMBL document CHEMBL3232856, “Endomorphin analogues with mixed μ-opioid (MOP) receptor agonism/δ-opioid (DOP) receptor antagonism and lacking β-arrestin2 recruitment activity” (Bioorg Med Chem, 2014)
The source made the active and inactive calls. No cut-off for these calls is given here. Residues, ends and D or L forms follow the SMILES beside them.

Columns and labels:
Mu-type opioid receptor [1] = biological target: Mu-type opioid receptor (Rattus norvegicus, UniProt P33535); assay: Displacement of [3H]DAMGO from mu opioid receptor in Sprague-Dawley rat brain P2 synaptosomal membranes
[2] = biological target: Delta-type opioid receptor (Rattus norvegicus, UniProt P33533); assay: Displacement of [3H]deltorphin-2 from delta opioid receptor in Sprague-Dawley rat brain P2 synaptosomal membranes
Mu-type opioid receptor [3] = biological target: Mu-type opioid receptor (Cavia porcellus, UniProt P97266); assay: Agonist activity at mu opioid receptor in guinea pig ileum assessed as inhibition of electrically-stimulated muscle contraction; format: tissue-based
[4] = biological target: Delta-type opioid receptor (Mus musculus, UniProt P32300); assay: Agonist activity at delta opioid receptor in mouse vas deferens assessed as inhibition of electrically-stimulated muscle contraction; format: tissue-based
Mu-type opioid receptor [5] = biological target: T1, Mu-type opioid receptor (Homo sapiens, UniProt P35372); assay: Agonist activity at GFP-fused mu opioid receptor (unknown origin) expressed in HEK293 cells assessed as recruitment of beta-arrestin-2 after 10 mins by BRET assay; format: cell-based
[6] = biological target: T2, Delta-type opioid receptor (Homo sapiens, UniProt P41143); assay: Agonist activity at GFP-fused delta opioid receptor (unknown origin) expressed in HEK293 cells assessed as recruitment of beta-arrestin-2 after 10 mins by BRET assay; format: functional, cell-based
[7] = biological target: T3, Kappa-type opioid receptor (Homo sapiens, UniProt P41145); assay: Agonist activity at GFP-fused kappa opioid receptor (unknown origin) expressed in HEK293 cells assessed as recruitment of beta-arrestin-2 after 10 mins by BRET assay; format: cell-based
Mu-type opioid receptor [8] = biological target: T1, Mu-type opioid receptor; conditions: HEK293, at 1 µM
Mu-type opioid receptor [9] = biological target: T1, Mu-type opioid receptor; conditions: HEK293, at 100 µM
[10] = biological target: T2, Delta-type opioid receptor; conditions: HEK293, at 0.1 to 10 µM
[11] = biological target: T2, Delta-type opioid receptor; conditions: HEK293, at 100 µM
[12] = biological target: T3, Kappa-type opioid receptor; conditions: HEK293, at 0.1 to 10 µM
[13] = biological target: T2, Delta-type opioid receptor; conditions: HEK293, at 100 µM; remark: listed apart in the source
Mu-type opioid receptor [14] = biological target: T1, Mu-type opioid receptor; assay: Potency index, ratio of DAMGO EC50 to compound EC50 for mu opioid receptor (unknown origin) by beta-arrestin-2 recruitment assay
Mu-type opioid receptor [15] = biological target: T1, Mu-type opioid receptor; assay: Intrinsic efficacy at GFP-fused mu opioid receptor (unknown origin) expressed in HEK293 cells assessed as recruitment of beta-arrestin-2 after 10 mins by BRET assay relative to untreated control; format: cell-based; conditions: hek293, 10 min
[16] = biological target: T2, Delta-type opioid receptor; assay: Agonist activity at delta opioid receptor (unknown origin) expressed in HEK293 cells assessed as inhibition of forskolin-induced cAMP accumulation after 30 mins; format: functional, cell-based
[17] = Displacement of [3H]DPDPE from delta opioid receptor in guinea pig brain membranes after 1 hr; format: cell membranes, Cavia porcellus, Membrane
Mu-type opioid receptor [18] = biological target: T1, Mu-type opioid receptor; assay: Displacement of [3H]DAMGO from mu opioid receptor (unknown origin)
[19] = biological target: T2, Delta-type opioid receptor; assay: Displacement of [3H]DPDPE from delta opioid receptor (unknown origin)

T1 sequence (P35372 whole entry, the tested form may be a part): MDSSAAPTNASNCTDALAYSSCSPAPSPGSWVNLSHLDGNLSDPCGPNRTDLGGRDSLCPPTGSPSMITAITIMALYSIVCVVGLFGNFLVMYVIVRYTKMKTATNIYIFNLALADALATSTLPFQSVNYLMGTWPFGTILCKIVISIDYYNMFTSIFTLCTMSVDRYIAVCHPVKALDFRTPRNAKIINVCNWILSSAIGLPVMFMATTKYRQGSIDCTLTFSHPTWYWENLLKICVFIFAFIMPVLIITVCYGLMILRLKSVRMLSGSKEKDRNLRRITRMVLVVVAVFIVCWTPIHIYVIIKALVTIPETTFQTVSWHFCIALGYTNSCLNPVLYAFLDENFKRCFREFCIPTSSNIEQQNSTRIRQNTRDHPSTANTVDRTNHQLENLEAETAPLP
T2 sequence (P41143 whole entry, the tested form may be a part): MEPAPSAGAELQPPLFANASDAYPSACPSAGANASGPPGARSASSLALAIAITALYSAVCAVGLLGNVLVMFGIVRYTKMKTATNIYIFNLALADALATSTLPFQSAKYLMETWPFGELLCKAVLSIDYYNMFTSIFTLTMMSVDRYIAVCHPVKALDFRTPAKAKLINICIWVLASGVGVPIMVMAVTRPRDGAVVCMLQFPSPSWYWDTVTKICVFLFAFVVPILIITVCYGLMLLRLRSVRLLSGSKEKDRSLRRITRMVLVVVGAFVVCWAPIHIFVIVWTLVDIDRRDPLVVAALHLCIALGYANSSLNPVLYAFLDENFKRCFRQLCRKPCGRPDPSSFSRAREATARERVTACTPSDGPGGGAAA
Sequence of Delta-type opioid receptor (Rattus norvegicus, UniProt P33533) (P33533 whole entry): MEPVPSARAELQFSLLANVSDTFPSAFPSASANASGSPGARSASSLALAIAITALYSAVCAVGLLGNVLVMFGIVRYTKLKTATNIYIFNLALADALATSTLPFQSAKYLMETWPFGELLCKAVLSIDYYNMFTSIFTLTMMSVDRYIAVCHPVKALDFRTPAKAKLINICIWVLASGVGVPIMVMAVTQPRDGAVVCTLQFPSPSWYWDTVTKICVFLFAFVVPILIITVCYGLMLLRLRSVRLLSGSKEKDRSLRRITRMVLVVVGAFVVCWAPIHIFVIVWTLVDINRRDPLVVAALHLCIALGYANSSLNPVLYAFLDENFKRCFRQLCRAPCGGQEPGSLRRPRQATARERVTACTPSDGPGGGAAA
T3 sequence (P41145 whole entry, the tested form may be a part): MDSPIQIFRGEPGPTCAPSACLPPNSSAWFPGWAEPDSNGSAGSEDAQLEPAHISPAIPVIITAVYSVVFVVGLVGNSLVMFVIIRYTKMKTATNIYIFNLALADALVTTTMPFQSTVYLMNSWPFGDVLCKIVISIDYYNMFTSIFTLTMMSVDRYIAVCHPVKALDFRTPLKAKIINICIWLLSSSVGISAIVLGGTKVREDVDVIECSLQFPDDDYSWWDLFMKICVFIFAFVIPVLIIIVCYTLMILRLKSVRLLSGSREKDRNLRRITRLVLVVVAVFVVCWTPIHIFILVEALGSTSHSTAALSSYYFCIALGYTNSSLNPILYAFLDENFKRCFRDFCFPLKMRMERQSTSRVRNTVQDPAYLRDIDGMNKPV
Sequence of Mu-type opioid receptor (Rattus norvegicus, UniProt P33535) (P33535 whole entry): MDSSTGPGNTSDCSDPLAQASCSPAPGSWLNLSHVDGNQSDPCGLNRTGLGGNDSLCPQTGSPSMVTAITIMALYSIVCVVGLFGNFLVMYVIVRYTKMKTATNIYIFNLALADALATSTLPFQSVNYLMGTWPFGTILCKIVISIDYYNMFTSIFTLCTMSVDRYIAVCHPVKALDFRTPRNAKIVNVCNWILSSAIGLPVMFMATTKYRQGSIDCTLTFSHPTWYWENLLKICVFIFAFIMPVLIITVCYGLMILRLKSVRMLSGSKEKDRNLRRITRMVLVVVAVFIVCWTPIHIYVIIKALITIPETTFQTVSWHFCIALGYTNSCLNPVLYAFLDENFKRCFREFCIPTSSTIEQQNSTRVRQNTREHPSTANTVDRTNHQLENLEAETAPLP
Sequence of Delta-type opioid receptor (Mus musculus, UniProt P32300) (P32300 whole entry, the tested form may be a part): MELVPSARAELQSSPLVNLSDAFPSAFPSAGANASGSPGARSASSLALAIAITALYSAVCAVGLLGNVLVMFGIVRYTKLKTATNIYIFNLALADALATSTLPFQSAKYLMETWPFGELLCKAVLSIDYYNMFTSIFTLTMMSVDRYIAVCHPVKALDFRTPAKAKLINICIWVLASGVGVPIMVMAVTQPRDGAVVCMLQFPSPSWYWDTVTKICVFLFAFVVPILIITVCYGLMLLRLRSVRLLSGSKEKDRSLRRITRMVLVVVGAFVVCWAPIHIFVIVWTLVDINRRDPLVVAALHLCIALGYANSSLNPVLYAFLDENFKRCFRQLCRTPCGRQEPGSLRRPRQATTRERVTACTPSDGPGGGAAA
Sequence of Mu-type opioid receptor (Cavia porcellus, UniProt P97266) (P97266 whole entry): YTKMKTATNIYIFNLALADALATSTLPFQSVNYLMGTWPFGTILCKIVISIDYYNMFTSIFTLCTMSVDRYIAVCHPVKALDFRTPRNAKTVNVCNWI

Structure (SMILES)	Ki (Mu-type opioid receptor [1])	Ki [2]	IC50 (Mu-type opioid receptor [3])	IC50 [4]	EC50 (Mu-type opioid receptor [5]; hek293)	EC50 [6]	EC50 [7]	inhibition (Mu-type opioid receptor [8])	inhibition (Mu-type opioid receptor [9])	inhibition [10]	inhibition [11]	inhibition [12]	inhibition [13]	EC50 (Mu-type opioid receptor [5]; read-out: EC50)	Ratio EC50 (Mu-type opioid receptor [14])	Ratio (Mu-type opioid receptor [15])	IC50 [16]	Ki [17]	Ki (Mu-type opioid receptor [18])	Ki [19]
Cc1cc(O)cc(C)c1C[C@H](N)C(=O)N1CCC[C@H]1C(=O)N[C@@H](Cc1ccccc1)C(=O)N[C@@H](Cc1c[nH]c2ccccc12)C(N)=O (HELM PEPTIDE1{[Cc1cc(O)cc(C)c1C[C@H](N)C(=O)[*:2]].P.F.W.[am]}$$$$V2.0)	0.34 nM	25.4 nM	207 nM	> 10000 nM	Not Active	Not Active	Not Active	Active	inactive	inactive	inactive	inactive	inactive							
Cc1cc(C)c(C[C@H](NC(=O)[C@@H]2CCCN2C(=O)[C@@H](N)Cc2c(C)cc(O)cc2C)C(N)=O)c(C)c1	0.13 nM	13.1 nM	2.68 nM	> 10000 nM		Not Active	Not Active	Active		inactive	inactive	inactive	inactive	18.6 nM	20	0.4				
Cc1cc(O)cc(C)c1C[C@H](N)C(=O)N1CCC[C@H]1C(=O)N[C@@H](Cc1cccc2ccccc12)C(N)=O (HELM PEPTIDE1{[Cc1cc(O)cc(C)c1C[C@H](N)C(=O)[*:2]].P.[O=C([C@H](Cc1cccc2ccccc12)N[*:1])[*:2]].[am]}$$$$V2.0)	0.7 nM	121 nM	4.63 nM	10000 nM	Not Active	Not Active	Not Active													
Cc1cc(C)c(C[C@H](NC(=O)[C@H](Cc2c(C)cc(C)cc2C)NC(=O)[C@@H]2CCCN2C(=O)[C@@H](N)Cc2c(C)cc(O)cc2C)C(N)=O)c(C)c1	0.47 nM	1.63 nM	9.28 nM	> 10000 nM	Not Active	Not Active	Not Active	Active		inactive	Active	inactive	Active							
Cc1cc(O)cc(C)c1C[C@H](N)C(=O)N1CCC[C@H]1C(=O)N[C@@H](Cc1c[nH]c2ccccc12)C(N)=O (HELM PEPTIDE1{[Cc1cc(O)cc(C)c1C[C@H](N)C(=O)[*:2]].P.W.[am]}$$$$V2.0)	0.21 nM	66.4 nM	10.4 nM	> 10000 nM		Not Active	Not Active	Active	Active	Active	inactive	Active	inactive	6.3 nM	60	0.6	< 100 nM			
Cc1cccc(C)c1C[C@H](NC(=O)[C@@H]1CCCN1C(=O)[C@@H](N)Cc1c(C)cc(O)cc1C)C(N)=O (HELM PEPTIDE1{[Cc1cc(O)cc(C)c1C[C@H](N)C(=O)[*:2]].P.[Cc1cccc(C)c1C[C@H](N[*:1])C(=O)[*:2]].[am]}$$$$V2.0)	0.15 nM	33 nM	0.274 nM	745 nM	Not Active	Not Active	Not Active													
C[C@@H](NC(=O)[C@@H](N)Cc1ccc(O)cc1)C(=O)NCC(=O)N(C)[C@@H](Cc1ccccc1)C(=O)NCCO								Active												
Cc1cc(O)cc(C)c1C[C@H](N)C(=O)N1CCC[C@H]1C(=O)N[C@@H](Cc1ccc2ccccc2c1)C(N)=O (HELM PEPTIDE1{[Cc1cc(O)cc(C)c1C[C@H](N)C(=O)[*:2]].P.[O=C([C@H](Cc1ccc2ccccc2c1)N[*:1])[*:2]].[am]}$$$$V2.0)	16.9 nM	68.3 nM	> 10000 nM	> 10000 nM	Not Active	Not Active	Not Active	Active		inactive	inactive	inactive	inactive							
Cc1cc(O)cc(C)c1C[C@H](N)C(=O)N1CCC[C@H]1C(=O)N[C@@H](Cc1ccccc1)C(=O)N[C@@H](Cc1ccc2ccccc2c1)C(N)=O (HELM PEPTIDE1{[Cc1cc(O)cc(C)c1C[C@H](N)C(=O)[*:2]].P.F.[O=C([C@H](Cc1ccc2ccccc2c1)N[*:1])[*:2]].[am]}$$$$V2.0)	0.81 nM	23.2 nM	40.2 nM	> 10000 nM	Not Active	Not Active	Not Active	Active	Active	inactive	inactive	inactive	inactive							
Cc1cccc(C)c1C[C@H](NC(=O)[C@H](Cc1ccccc1)NC(=O)[C@@H]1CCCN1C(=O)[C@@H](N)Cc1c(C)cc(O)cc1C)C(N)=O	0.31 nM	40 nM	249 nM	> 10000 nM	Not Active	Not Active	Not Active	Active	inactive	inactive	inactive	inactive	inactive							
CC(C)C[C@@H](NC(=O)[C@H](Cc1ccccc1)NC(=O)CNC(=O)[C@@H](C)NC(=O)[C@@H](N)Cc1ccc(O)cc1)C(=O)O [DADLE]			13.4 nM															0.3 nM		
Cc1cc(O)cc(C)c1C[C@H](N)C(=O)N1CCC[C@H]1C(=O)N[C@@H](Cc1ccccc1)C(N)=O (HELM PEPTIDE1{[Cc1cc(O)cc(C)c1C[C@H](N)C(=O)[*:2]].P.F.[am]}$$$$V2.0)			2.33 nM	113 nM															0.12 nM	53.2 nM
Oc1ccc2c3c1O[C@H]1c4oc5ccccc5c4C[C@@]4(O)[C@@H](C2)N(CC2CC2)CC[C@]314											50%									
Cc1cc(O)cc(C)c1C[C@H](NC(=O)[C@H](Cc1ccccc1)NC(=O)[C@@H]1CCCN1C(=O)[C@@H](N)Cc1c(C)cc(O)cc1C)C(N)=O (HELM PEPTIDE1{[Cc1cc(O)cc(C)c1C[C@H](N)C(=O)[*:2]].P.F.[Cc1cc(O)cc(C)c1C[C@H](N[*:1])C(=O)[*:2]].[am]}$$$$V2.0)	0.28 nM	87.2 nM	44.6 nM	> 10000 nM	Not Active	Not Active	Not Active	Active	inactive	inactive	inactive	inactive	inactive							
Cc1cc(O)cc(C)c1C[C@H](N)C(=O)N1CCC[C@H]1C(=O)N[C@@H](Cc1ccccc1)C(=O)N[C@@H](Cc1cccc2ccccc12)C(N)=O (HELM PEPTIDE1{[Cc1cc(O)cc(C)c1C[C@H](N)C(=O)[*:2]].P.F.[O=C([C@H](Cc1cccc2ccccc12)N[*:1])[*:2]].[am]}$$$$V2.0)	0.28 nM	51.7 nM	14.3 nM	> 10000 nM	Not Active	Not Active	Not Active	Active		inactive	inactive	inactive	inactive							
Cc1cc(C)c(C[C@H](NC(=O)[C@H](Cc2ccccc2)NC(=O)[C@@H]2CCCN2C(=O)[C@@H](N)Cc2c(C)cc(O)cc2C)C(N)=O)c(C)c1	0.37 nM	24.5 nM	66.7 nM	> 10000 nM	Not Active	Not Active	Not Active	Active	inactive	inactive	inactive	inactive	inactive							
